Some results are limits rather than exact numbers.

The target of the experiment is human PKR1 receptors (Homo sapiens (Human), UniProt Q8TCW9). The experiment can be described thus: PKR1 antagonist assay: block of PK1-mediated intracellular calcium release (FLIPR Tetra). The format is cell-based. The following applies: RBL2H3 cells expressing human PKR1; stimulation with PK1 at EC80; calcium fluorescence. The method, then:
Prokineticin receptor 1 (PKR1) antagonists may be functionally assessed by measurement of change in intracellular calcium levels induced by Gq mediated increase in inositol triphosphate (IP3) levels. The ability of a compound to block the intracellular release of calcium mediated by PK1 in RBL2H3 cells expressing human PKR1 receptors is determined as a measure of the compound's antagonist activity in vitro.
Approximately 10,000 cells per assay well are seeded in normal culture medium in a 384 well plate (Corning). Twenty-four hours after seeding, the cells are loaded with a calcium sensitive fluorescent dye by replacing the culture medium with assay buffer (1× Hanks buffered saline, 25 mM HEPES, 0.1% w/v fatty acid free BSA (bovine serum albumin), pH 7.4) containing 1 mM probenecid and 1× Calcium 5 Reagent (Molecular Devices). Cells are incubated at 37° C. for 1 hour to allow for dye uptake.
To test for antagonist activity, test compounds at a final concentration range between 0.32 nM-10 μM (diluted in assay buffer) are added to the assay wells and allowed to incubate for 10 minutes prior to stimulation with PK1. After incubation with test compounds the assay plate is placed in a FLIPR Tetra (Molecular Devices) and PK1 (diluted in assay buffer) is added at the determined EC80 concentration (final). Ligand-dependent changes in intracellular calcium levels are determined by measuring changes in fluorescence of the dye at […] following excitation at 485 nm.

Chain of human PKR1 receptors (Q8TCW9 whole entry): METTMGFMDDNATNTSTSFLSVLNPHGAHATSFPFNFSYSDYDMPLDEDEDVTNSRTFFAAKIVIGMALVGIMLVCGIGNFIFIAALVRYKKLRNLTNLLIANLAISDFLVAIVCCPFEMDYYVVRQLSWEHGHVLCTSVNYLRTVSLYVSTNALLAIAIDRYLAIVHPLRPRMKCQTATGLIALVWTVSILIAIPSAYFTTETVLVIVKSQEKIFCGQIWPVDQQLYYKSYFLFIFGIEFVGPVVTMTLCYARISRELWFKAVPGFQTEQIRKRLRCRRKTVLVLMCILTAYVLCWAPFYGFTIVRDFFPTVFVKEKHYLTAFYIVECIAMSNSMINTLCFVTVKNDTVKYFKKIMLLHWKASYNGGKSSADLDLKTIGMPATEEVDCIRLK

Consider `Cc1ccc(C2CCCN(C(=O)c3ccnc(N(C)C)c3)C2)cc1` (single isomer, unassigned) [Example 50, N,N-Dimethyl-4-{[3-(4-methylphenyl)piperidin-1-yl]carbonyl}pyridin-2-amine], for which the IC50 turned out to be 990 nM.
The value for `Cc1ccc(C2CCCN(C(=O)c3ccnc(N(C)C)c3)C2)cc1` (single isomer, unassigned) [Example 51, N,N-Dimethyl-4-{[3-(4-methylphenyl)piperidin-1-yl]carbonyl}pyridin-2-amine] was 310 nM; that for `CNc1cc(C(=O)N2CCC[C@@H](c3ccc(Cl)cc3C)C2)cnn1` (single isomer, unassigned) [Example 73] was 1180 nM; that for `Cn1cc(C(=O)N2CCCC(c3ccc(Cl)cc3C(F)(F)F)C2)c(N)n1` (single isomer, unassigned) [Example 118, 4-({3-[4-Chloro-2-(trifluoromethyl)phenyl]piperidin-1-yl}carbonyl)-1-methyl-1H-pyrazol-3-amine] was above 10000 nM.
Then `Cn1cc(C(=O)N2CCCC(c3ccc(Cl)cc3C(F)(F)F)C2)c(N)n1` (single isomer, unassigned) [Example 119, 4-({3-[4-Chloro-2-(trifluoromethyl)phenyl]piperidin-1-yl}carbonyl)-1-methyl-1H-pyrazol-3-amine], with 330 nM.
With `CN(C)c1cc(C(=O)N2CCCC(c3ccccc3F)C2)ccn1` (stereo not drawn) [Example 1, 4-{[3-(2-Fluorophenyl)piperidin-1-yl]carbonyl}-N,N-dimethylpyridin-2-amine], the IC50 amounted to 1820 nM.
As to `CN(C)c1cc(C(=O)N2CCCC(c3ccc(Cl)cc3Cl)C2)ccn1` (stereo not drawn) [Example 2, 4-{[3-(2,4-Dichlorophenyl)piperidin-1-yl]carbonyl}-N,N-dimethylpyridin-2-amine], the IC50 is 190 nM.
The value for `O=C(c1ccnc(C2CC2)c1)N1CCCC(c2ccc(Cl)cc2)C1` (stereo not drawn) [Example 3, 4-{[3-(4-Chlorophenyl)piperidin-1-yl]carbonyl}-2-cyclopropylpyridine] was 1740 nM; that for `CCc1cc(C(=O)N2CCCC(c3ccc(Cl)cc3C)C2)ccn1` (stereo not drawn) [Example 4, 4-{[3-(4-Chloro-2-methylphenyl)piperidin-1-yl]carbonyl}-2-ethylpyridine] was 70 nM.
Then `Cc1cc(C(=O)N2CCCC(c3ccc(Cl)cc3C)C2)ccn1` (stereo not drawn) [Example 5, 4-{[3-(4-Chloro-2-methylphenyl)piperidin-1-yl]carbonyl}-2-methylpyridine], with 450 nM.
The value for `CCc1cc(C(=O)N2CCCC(c3ccc(Cl)cc3C(F)(F)F)C2)ccn1` (stereo not drawn) [Example 6, 4-({3-[4-Chloro-2-(trifluoromethyl)phenyl]piperidin-1-yl}carbonyl)-2-ethylpyridine] was 280 nM; that for `CN(C)c1cc(C(=O)N2CCCC(c3ccc(Cl)cc3C(F)(F)F)C2)ccn1` (stereo not drawn) [Example 7, 4-({3-[4-Chloro-2-(trifluoromethyl)phenyl]piperidin-1-yl}carbonyl)-N,N-dimethylpyridin-2-amine] was 100 nM; that for `CC(C)Nc1cc(C(=O)N2CCCC(c3ccc(Cl)cc3)C2)ccn1` (stereo not drawn) [Example 8, 4-{[3-(4-Chlorophenyl)piperidin-1-yl]carbonyl}-N-(propan-2-yl)pyridin-2-amine] was 3270 nM.
Consider `COc1cc(C(=O)N2CCCC(c3ccc(Cl)cc3C(F)(F)F)C2)ccn1` (stereo not drawn) [Example 9, 4-({3-[4-Chloro-2-(trifluoromethyl)phenyl]piperidin-1-yl}carbonyl)-2-methoxypyridine], for which the IC50 turned out to be 1370 nM.
The value for `Cc1cc(C(=O)N2CCCC(c3ccc(Cl)cc3C(F)(F)F)C2)ccn1` (stereo not drawn) [Example 10, 4-({3-[4-Chloro-2-(trifluoromethyl)phenyl]piperidin-1-yl}carbonyl)-2-methylpyridine] was 1170 nM; that for `CNc1cc(C(=O)N2CCCC(c3ccc(C)cc3)C2)ccn1` (stereo not drawn) [Example 11, N-Methyl-4-{[3-(4-methylphenyl)piperidin-1-yl]carbonyl}pyridin-2-amine] was 290 nM; that for `Cc1ccc(C2CCCN(C(=O)c3ccnc(C)c3)C2)cc1` (stereo not drawn) [Example 12, 2-Methyl-4-{[3-(4-methylphenyl)piperidin-1-yl]carbonyl}pyridine] was 2800 nM.
For `Cc1cccc(C2CCCN(C(=O)c3ccnc(N(C)C)c3)C2)c1` (stereo not drawn) [Example 13, N,N-Dimethyl-4-{[3-(3-methylphenyl)piperidin-1-yl]carbonyl}pyridin-2-amine], the IC50 was found to be 1920 nM.
The value for `Cc1ccccc1C1CCCN(C(=O)c2ccnc(N(C)C)c2)C1` (stereo not drawn) [Example 14, N,N-Dimethyl-4-{[3-(2-methylphenyl)piperidin-1-yl]carbonyl}pyridin-2-amine] was 190 nM; that for `CN(C)c1cc(C(=O)N2CCCC(c3ccccc3)C2)ccn1` (stereo not drawn) [Example 15, N,N-Dimethyl-4-[(3-phenylpiperidin-1-yl)carbonyl]pyridin-2-amine] was 1140 nM; that for `CN(C)c1cc(C(=O)N2CCCC(c3ccc(Cl)cc3)C2)ccn1` (stereo not drawn) [Example 16, 4-{[3-(4-Chlorophenyl)piperidin-1-yl]carbonyl}-N,N-dimethylpyridin-2-amine] was 270 nM.
Then `CN(C)c1cc(C(=O)N2CCC[C@@H](c3ccc(Cl)cc3)C2)ccn1` [Example 17, 4-{[(3S)-3-(4-Chlorophenyl)piperidin-1-yl]carbonyl}-N,N-dimethylpyridin-2-amine], with 840 nM.
In the case of `CN(C)c1cc(C(=O)N2CCC[C@H](c3ccc(Cl)cc3)C2)ccn1` [Example 18, 4-{[(3R)-3-(4-Chlorophenyl)piperidin-1-yl]carbonyl}-N,N-dimethylpyridin-2-amine], the IC50 was 180 nM.
The value for `CN(C)c1cc(C(=O)N2CCCC(c3ccc(F)cc3)C2)ccn1` (stereo not drawn) [Example 19, 4-{[3-(4-Fluorophenyl)piperidin-1-yl]carbonyl}-N,N-dimethylpyridin-2-amine] was 1220 nM.
The value for `CCc1cc(C(=O)N2CCCC(c3ccc(C)cc3)C2)ccn1` (stereo not drawn) [Example 20, 2-Ethyl-4-{[3-(4-methylphenyl)piperidin-1-yl]carbonyl}pyridine] was 1210 nM; that for `Cc1ccc(C2CCCN(C(=O)c3ccnc(N4CCC4)c3)C2)cc1` (stereo not drawn) [Example 21, 2-(Azetidin-1-yl)-4-{[3-(4-methylphenyl)piperidin-1-yl]carbonyl}pyridine] was 1200 nM.
The value for `O=C(c1ccnc(N2CCC2)c1)N1CCCC(c2ccc(Cl)cc2)C1` (stereo not drawn) [Example 22, 2-(Azetidin-1-yl)-4-{[3-(4-chlorophenyl)piperidin-1-yl]carbonyl}pyridine] was 1040 nM.
With `Cc1ccccc1C1CCCN(C(=O)c2ccnc(N3CCC3)c2)C1` (stereo not drawn) [Example 23, 2-(Azetidin-1-yl)-4-{[3-(2-methylphenyl)piperidin-1-yl]carbonyl}pyridine], the IC50 amounted to 960 nM.
Then `Cc1cc(Cl)ccc1C1CCCN(C(=O)c2ccnc(N(C)C)c2)C1` (stereo not drawn) [Example 24, 4-{[3-(4-Chloro-2-methylphenyl)piperidin-1-yl]carbonyl}-N,N-dimethylpyridin-2-amine], with 30 nM.
The value for `CN(C)c1cc(C(=O)N2CCCC(c3ccc(Cl)cc3F)C2)ccn1` (stereo not drawn) [Example 25, 4-{[3-(4-Chloro-2-fluorophenyl)piperidin-1-yl]carbonyl}-N,N-dimethylpyridin-2-amine] was 530 nM; that for `CN(C)c1cc(C(=O)N2CCCC(c3ccc(F)cc3Cl)C2)ccn1` (stereo not drawn) [Example 26, 4-{[3-(2-Chloro-4-fluorophenyl)piperidin-1-yl]carbonyl}-N,N-dimethylpyridin-2-amine] was 470 nM.
The value for `CNc1cc(C(=O)N2CCCC(c3ccc(Cl)cc3)C2)ccn1` (stereo not drawn) [Example 27, 4-{[3-(4-Chlorophenyl)piperidin-1-yl]carbonyl}-N-methylpyridin-2-amine] was 130 nM; that for `Cc1cc(C(=O)N2CCCC(c3ccc(Cl)cc3)C2)cc(C)n1` (stereo not drawn) [Example 28, 4-{[3-(4-Chlorophenyl)piperidin-1-yl]carbonyl}-2,6-dimethylpyridine] was 1330 nM.
For the compound `O=C(c1ccnc(Cl)c1)N1CCCC(c2ccc(Cl)cc2)C1` (stereo not drawn) [Example 29, 2-Chloro-4-{[3-(4-chlorophenyl)piperidin-1-yl]carbonyl}pyridine], the IC50 amounted to 3290 nM.
Then `CC(C)c1cc(C(=O)N2CCCC(c3ccc(Cl)cc3)C2)ccn1` (stereo not drawn) [Example 30, 4-{[3-(4-Chlorophenyl)piperidin-1-yl]carbonyl}-2-(propan-2-yl)pyridine], with 830 nM; and `CNc1cc(C(=O)N2CCCC(c3ccc(Cl)cc3C)C2)ccn1` (stereo not drawn) [Example 31, 4-{[3-(4-Chloro-2-methylphenyl)piperidin-1-yl]carbonyl}-N-methylpyridin-2-amine], with 30 nM; and `COc1cc(C(=O)N2CCCC(c3ccc(Cl)cc3C)C2)ccn1` (stereo not drawn) [Example 32, 4-{[3-(4-Chloro-2-methylphenyl)piperidin-1-yl]carbonyl}-2-methoxypyridine], with 490 nM.
On to `Cc1cc(Cl)ccc1C1CCCN(C(=O)c2ccnc(N3CCC3)c2)C1` (stereo not drawn) [Example 33, 2-(Azetidin-1-yl)-4-{[3-(4-chloro-2-methylphenyl)piperidin-1-yl]carbonyl}pyridine], for which the IC50 was found to be 90 nM.
Then `COc1cc(C(=O)N2CCCC(c3ccc(C)cc3)C2)ccn1` (stereo not drawn) [Example 34, 2-Methoxy-4-{[3-(4-methylphenyl)piperidin-1-yl]carbonyl}pyridine], with 5270 nM.

The values are drawn from patent publication US9790201B2, “Piperidine and azepine derivatives as prokineticin receptor modulators” (TAKEDA PHARMACEUTICAL COMPANY LIMITED, priority 2013, dated 2017).
